Experimental data taken from US6806266B1 (priority 1999, dated 2004).
Where two headings read alike, the source gives them in different places.

Assays:
[1] = system: human epidermal cancer cell line A431; format: cell-based; conditions: A431 cells
Protocol: After the removal of the culture supernatant, the cells were washed with PBS(−), detached in an aqueous solution of 0.25% of Trypsin (GIBCO BRL) and 0.02% of ethylenediaminetetraacetic acid (Wako Pure Chemical Industries, Ltd.), then fixed at a density of 10^6 cells/mL with a 70% aqueous solution of ethanol and stored in a cold room at 4° C. Ethanol was removed by centrifugation from the fixed cells, and then the fixed cells were washed with PBS(−). The cells were treated at 37° C. for 30 minutes with a 0.25 mg/mL PBS(−)solution of ribonuclease A type 1-A (Sigma) containing 0.1% of Nonidet P-40 (Nacalai Tesque, Inc.), and then a solution of propidiumiodide (Sigma) in 0.1% NP-40/PBS(−) was added into the cells at a final concentration of 50 μg/mL, and the cells were stained in ice for at least 20 minutes.
A DNA histogram was taken by EPICS ELITE Flow Cytometer, and the cell cycle distribution was analyzed by use of MultiCycle Program.
In the method shown in Test Example 3, the G2 stage and the M stage of the cell cycle can not be distinguished from each other, and thus the distrubution of the G2 stage combined with that of the M stage (G2 stage+M stage) is expressed in percentage.

human AGP (hα1AGP) = format: binding; conditions: equimolar solution (20 μmol/L) of test compound and human AGP, PBS pH=7.4, 37° C., two hours after mixing with DCC; HPLC peak area ratio
Protocol: A solution of the test compound in DMSO was added to an isotonic phosphate buffer (PBS, pH=7.4) containing human AGP, to prepare an equimolar solution (20 μmol/L) of the test compound and human AGP. The solution was pre-incubated at 37° C. for 15 minutes and then mixed with an equal volume of 4 mg/mL of DCC in PBS, and incubation was further continued. After two hours from mixing, a part of the solution was sampled and centrifuged (4° C., 20000×g, 2 minutes) to precipitate the charcoal, and the supernatant was subjected to HPLC analysis. Separately, an equimolar solution (20 μmol/L) of the test compound and human AGP was mixed with an equal volume of PBS (pH=7.4), and then the mixed solution was subjected as a DCC-untreated sample to HPLC analysis. The ratio of the peak area of the DCC-treated sample to the average peak area of the DCC-untreated sample (the solution mixed with PBS) was calculated as the degree of binding (%).

[2] = system: human lung cancer cell line A-549; experiment: Test for inhibitory activity on cell growth in human lung cancer cell line A-549; conditions: A549, 72 h, read-out: Inhibitory activity on cell growth (IC50/μmol/L)
[3] = Cisplatin 20 μmol/L + test compound 50 nmol/L, 8 hours

SMILES: N.N.[Cl][Pt][Cl] [Cisplatin]
- Cell cycle distribution (%) G1 stage ([1]; Cisplatin 20 μmol/L alone): 5.5%
- Cell cycle distribution (%) G2 stage + M stage ([1]; Cisplatin 20 μmol/L alone): 17.5%
- Cell cycle distribution (%) S stage ([1]; Cisplatin 20 μmol/L alone): 77.0%
- accumulation action at the G2 stage or S stage (cell cycle distribution versus untreated group) ([1]; only Cisplatin (20 μmol/L)): An increase in the S stage, an increase in (G2 stage+M stage) and a decrease in the G1 stage

SMILES: CN[C@@H]1C[C@H]2O[C@@](C)([C@@H]1OC)n1c3ccccc3c3c4c(c5c6ccccc6n2c5c31)C(=O)N[C@@H]4O [UCN-01]
- Degree of binding to hα1AGP (%) (human AGP (hα1AGP)): 76.8%
- Cell cycle distribution (%) G1 stage [1, 3]: 31.9%
- Cell cycle distribution (%) G2 stage + M stage [1, 3]: 27.6%
- Cell cycle distribution (%) S stage [1, 3]: 40.5%
- abrogation of accumulation action at the G2 stage and S stage ([1]; in combination with Cisplatin (20 μmol/L)): a decrease in the S stage and an increase in the G1 stage
- IC50 [2]: 0.018 µmol/L
